The values that follow are results of earlier work, collected in patent publication US20080206336A1, “Novel Composition Comprising Rosiglitazone and Another Antidiabetic Agent” (SB PHARMCO PURERTO RICO INC. The Prentice Hall Corp. System …, priority 2003, published 2008).

Each structure is given as a SMILES string.

For the data set the following is noted: acidic conditions of the stomach (around pH 2) versus near neutral conditions of the lower intestine (around pH 7).

As to `CN(CCOc1ccc(CC2SC(=O)NC2=O)cc1)c1ccccn1` (stereo not shown) [Compound A, 5-[4-[2-(N-methyl-N-(2 pyridyl)amino)ethoxy]benzyl]thiazolidine-2,4-dione], the pH dependent solubility result was “marked pH dependent solubility”.
